From patent publication USRE49223E1, “Water-soluble fluorescence compound and method for preparing the same” (SNU R&DB FOUNDATION, priority 2011, dated 2022)

How the values were obtained:
[1] = in ethanol; reference standard; cited from earlier work
[2] = Excitation and emission maxima by fluorescent spectrophotometer; format: physicochemical; conditions: solvent: Ref. Ex. 1 methanol, 2 ethanol, 3 n-propanol, 4 iso-propanol, 5 n-butanol, 6 DMSO
Protocol: UV absorption of the final fluorescent compound is determined by using a UV-VISIBLE spectrophotometer (Perkin Elmer, USA). Maximum values of excitation and emission are determined by using a fluorescent spectrophotometer (PTI, USA).
(§1) Except for conducting the photochemical reaction in the presence of an organic solvent such as ethanol (Reference Example 2), n-propanol (Reference Example 3), iso-propanol (Reference Example 4), n- butanol (Reference Example 5) or DMSO (Reference Example 6), respectively, the fluorescent compound is obtained from trans-resveratrol in the same manner as Reference Example 1.

[3] = Fluorescence quantum yield (relative vs rhodamin 6G; absolute PL quantum yield system); format: physicochemical; conditions: solvent: Ref. Ex. 1 methanol, 2 ethanol, 3 n-propanol, 4 iso-propanol, 5 n-butanol, 6 DMSO; for Absolute quantum yield: absolute PL quantum yield measurement system; for Relative quantum yield: relative to rhodamin 6G
Protocol: The absolute quantum yield is determined by using an absolute PL quantum yield measurement system (QE-1000, Otsuka Electronics, Japan). The relative quantum yield is determined by measuring the absorbance and emission intensity for each five concentrations for one solvent, determining the slope of said measured values, and comparing the slope with that of rhodamin 6G (the quantum yield of rhodamin 6G in ethanol is 0.95).
as §1

[4] = test system: osteosarcoma cell line (U2OS); test: Western blotting test of cell extinction and damage markers (Caspase-3, PARP); format: cell-based; conditions: U2OS osteosarcoma cells; 10 μM (FIG. 15)
Protocol: (§2) After a certain period of time, the degree of cell extinction is evaluated by examining the degree of expression of extinction and damage of a specific factor by using Western Blotting Test and the result is shown in FIG. 15.

[5] = Irradiation with natural light (photochemical stability); format: physicochemical; conditions: natural light for a long period of time
From the text: Meanwhile, prior art (PCT/EP01/06103) discloses using polydatin of formula 5 above as sunblock.

[6] = test system: breast epithelial cell line; test: Western blotting test of cell extinction and damage markers (Caspase-3, PARP); format: cell-based; conditions: 1, 10 and 100 μM (FIG. 15)
Protocol: as §2

[7] = test system: breast epithelial cell line; test: Cytomorphology test (cytotoxicity); format: cell-based; conditions: breast epithelial cells, cultured about 72 hours, microscopic examination (FIG. 13)
Protocol: (§3) In the presence of a test compound or a comparative compound, a cell line is cultured for a certain period of time (about 72 hours) and then a cytotoxicity test is conducted. As a control group, a blank test is conducted in the same manner as above without adding any compound including the test compound and the comparative compound.

breast epithelial cell = test: Trypan blue exclusion test (cytotoxicity); format: cell-based; conditions: both test concentrations 1 μM and 10 μM (FIG. 14)
Protocol: as §3

[8] = listed as Reference Example 2, in Ethanol solvent
[9] = listed as Reference Example 3, in n-Propanol solvent
[10] = listed as Reference Example 4, in iso-Propanol solvent
[11] = listed as Reference Example 5, in n-Butanol solvent
[12] = listed as Reference Example 6, in DMSO solvent

CCN=c1cc2oc3cc(NCC)c(C)cc3c(-c3ccccc3C(=O)OCC)c-2cc1C.Cl [rhodamin 6G]
quantum yield [1]: 0.95

CC(=O)/C=C/c1ccc2cc(O)cc(O)c2c1 [Reference Example 1, (E)-4-(6,8-dihydroxynaphthalen-2-yl) but-3-en-2-one]
Emission [2]: 547 nm
Excitation [2]: 390 nm
Emission [2, 8]: 540 nm
Emission [2, 9]: 534 nm
Emission [2, 10]: 525 nm
Emission [2, 11]: 536 nm
Emission [2, 12]: 497 nm
Absolute quantum yield [3]: 0.058
Absolute quantum yield [3, 8]: 0.145
Absolute quantum yield [3, 9]: 0.212
Absolute quantum yield [3, 10]: 0.311
Absolute quantum yield [3, 11]: 0.254
Absolute quantum yield [3, 12]: 0.439
Relative quantum yield [3]: 0.035
Relative quantum yield [3, 8]: 0.103
Relative quantum yield [3, 9]: 0.155
Relative quantum yield [3, 10]: 0.247
Relative quantum yield [3, 11]: 0.200
Relative quantum yield [3, 12]: 0.523

COc1cc([C@@H]2c3cc4c(cc3[C@@H](O[C@@H]3O[C@@H]5CO[C@@H](C)O[C@H]5[C@H](O)[C@H]3O)[C@H]3COC(=O)[C@H]23)OCO4)cc(OC)c1O [Etoposide]
Western blot peaks resulting from cell extinction and damage [4]: significantly remarkable peak at 17 kDa, 19 kDa and 89 kDa positions

OC[C@H]1O[C@@H](Oc2cc(O)cc(/C=C/c3ccc(O)cc3)c2)[C@H](O)[C@@H](O)[C@@H]1O [polydatin, resveratrol 3-O-β-glucoside]
photochemical reaction product after irradiation [5]: any photochemical reaction product could not be found

CC(=O)/C=C/c1ccc2cc(O[C@@H]3O[C@H](CO)[C@@H](O)[C@H](O)[C@H]3O)cc(O)c2c1 [Resveratrone glucoside, (E)-4-(8-hydroxy-6-(((2S,3R,4S,5S,6R)-3,4,5-trihydroxy-6-(hydroxymethyl)tetrahydro-2H-pyran-2-yl)oxy)naphthalen-2-yl)but-3-en-2-one]
Western blot peaks resulting from cell extinction and damage [6]: no peak at 17 kDa, 19 kDa and 89 kDa positions
cytomorphology and number change of the cultured cell vs control group [7]: no significant difference from the control group
number of cells alive vs control group (breast epithelial cell): number of cells similar to that of the control group
